The source of these data is US20200360391A1, “Medicinal Composition for Treating Intractable Heart Disease” (Osaka University, priority 2016, published 2020).

For series [1], the system named is spontaneous dilated cardiomyopathy (J2N-k) hamster model. The experiment in a line: Spontaneous dilated cardiomyopathy (J2N-k) hamster model, 8-week administration from 20 weeks of age (Tests 1-3): echocardiography, body weight. Here is the method:
The doses of pharmaceutical products were determined based on the no-observed-adverse-effect levels in a long-term toxicity study using rats. δ-Glycan-deficient spontaneous dilated cardiomyopathy (J2N-k) male hamsters (Japan SLC, Inc.) were delivered at 18 weeks of age. After a 2-week quarantine/acclimation, echocardiography was performed.
Each of the pharmaceutical products (A to K and O) was individually administered twice daily (at an interval of 8 hours or more) by oral gavage, and echocardiography was performed after 4 and 8 weeks (before dissection). Differences from the value before the start of administration (at the time of grouping) (amount of change: Δ) in each group were examined, and the cardiac function (EF value, FS %, etc.) was compared with that in the vehicle group (Group 1). Moreover, the heart was removed […] after the start of administration, and electron microscopy and RNA protein measurement were performed. Specimens for immunopathology were also collected and evaluated.
Each pharmaceutical product was individually suspended in 0.5% CMC-Na (sodium carboxymethylcellulose; Wako Pure Chemical Industries, Ltd.) before use, and administered. […] To Group 1 (control), 0.5% CNC-Na (vehicle) was administered.
Each pharmaceutical product was individually suspended in 0.5% CMC-Na (sodium carboxymethylcellulose; Wako Pure Chemical Industries, Ltd.) before use, and administered. Test substance G was suspended in distilled water before use, and administered.
Reason the doses were set (assuming that the adult body weight was 60 kg, the same amounts as the maximum clinical doses were set) • 1) The clinical dose of C (ozagrel; OZ) was 200 mg twice per day. The dose was thus set to 3.3 mg/kg twice per day. • 2) The clinical dose of D (cilostazol; CS) was 100 mg twice per day. The dose was thus set to 1.7 mg/kg twice per day. • 3) The clinical dose of E (pirfenidone; PF) was 600 mg three times per day, i.e., 1800 mg/day in total. The dose was thus set to 15 mg/kg twice per day. • 4) The clinical dose of G (nintedanib sulfonate; OB) was 150 mg twice per day. The dose was thus set to 2.5 mg/kg twice per day. • 5) The clinical dose of P (carvedilol; CV) was 10 mg twice per day. The dose was thus set to 0.17 mg/kg twice per day. • 6) Preparation 2 (PLGA⋅MS preparation of camostat; B⋅MS): the clinical dose of active substance camostat was 200 mg three times per day, i.e., 600 mg/day in total; thus, intermittent subcutaneous administration at a daily dose of 10 mg/kg once every 4 weeks, twice in total was set. The dose was 1/28 of the total oral dose amount.
The dose volume in oral administration was 5 mL/kg (the amount of liquid to be administered to each animal was calculated based on the most recent body weight), and administered by oral gavage using a polypropylene disposable syringe and a rat stomach tube.
The administration period of each pharmaceutical product was 8 weeks.

For series [2] the following is noted: cited from earlier work; for Cases with side effects (including laboratory test value abnormality): share of cases evaluated for safety.
Series [3] relates to spontaneous dilated cardiomyopathy J2N-k baby hamsters. Put plainly: J2N-k baby hamsters (Test 4): administration alone or in combination, echocardiography, body weight. Particulars: for % FS / EF (%) / value of change in E.F. compared with E.F. at 0 W / value of change in F.S. compared with F.S. at 0 W: Test 4, dose O 0.17, C 3.3, E 15, orally twice daily, mean ± S.D. The series is classed as in vivo, hamster. Here is the method:
δ-Glycan-deficient spontaneous dilated cardiomyopathy (J2N-k) male hamsters (Japan SLC, Inc.) were delivered at 4 weeks of age. After a 1-week quarantine/acclimation, echocardiography was performed. The hamsters were grouped by stratified random assignment based on the EF values and the body weights so that each administration group was equalized.
Each test substance was individually administered twice daily (at an interval of 8 hours or more) by oral gavage, and echocardiography was performed 4 and 8 weeks after the start of administration (before dissection). Differences from the value before the start of administration (at the time of grouping) (amount of change: A) in each group were examined, and the cardiac function (EF value, FS %, etc.) was compared with that in the vehicle group (Group 1).
The doses were set according to the dose-setting basis in Test 3, and similarly orally administered twice daily. Effects of administration of combinations of two or three of carvedilol, which is a β-blocker widely used clinically, and ozagrel and/or pirfenidone were examined.

Series [4] deals with rats. The conditions noted are these: rats, cited from earlier work.
Setting [5] is: Test 2, p.o. b.i.d., NOAEL-based dose.
Setting [6] is: Test 4, p.o. b.i.d., clinical dose.
[7] abbreviates: Test 2, p.o. b.i.d., NOAEL-based dose, listed as lovastatin.

“Also recorded” adds a separate entry of the source. Where two headings read alike, the source gives them in different places. Marks after values point to notes of the source that are not given here.

In the case of `Cn1c(=O)c2[nH]cnc2n(C)c1=O` [Compound H, Theophylline], in series [1] (Test 2, p.o. b.i.d.), the “LVIDd 4 W” value was determined as 7.0 mm, the “LVIDd 8 W” value is reported as 7.3 mm, the “LVIDs 4 W” value is reported as 5.9 ± mm and the “LVIDs 8 W” value is listed as 6.3 mm. In series [1] (setting [5]), the “% FS 4 W” value is on record as “not significantly higher” and the “% FS value of change at 4 W compared with 0 W” value (shortened to “% FS value of change at 4 W”) was “not significantly higher”. Moreover, the “Body weight 0 W” value in series [1] (hamster, in vivo) worked out at 121.4 g. In series [1] (hamster, in vivo, po), the “Body weight 1 W” value was 120.2 g, the “Body weight 2 W” value is 120.2 g, the “Body weight 3 W” value was determined as 121.0 g and the “Body weight 4 W” value was found to be 122.4 g. For the same molecule, in series [1] (hamster, in vivo, po), the “Body weight 6 W” value stood at 122.6 g and the “Body weight 8 W” value amounted to 123.6 g. In addition, in series [2] (human, in vivo), the “Headache (headache/heavy-headedness) cases” value is 2.56%, the “Nausea cases (cilostazol: nausea/vomiting)” value is listed as 4.05% and the Palpitations cases is on record as 1.17%. Also, in series [2], the “Cases with side effects (including laboratory test value abnormality)” value is 9.05%.
As for `COc1ccccc1OCCNCC(O)COc1cccc2[nH]c3ccccc3c12` (centres unmarked) [Compound O, Carvedilol], in series [1] (Test 3, clinical dose), the “Cardiac function (EF, FS %) actual measured value and/or amount of change compared with control, 8 W value” is given as “significant cardiac function improvement effect” and the “Cardiac function (EF, FS %) actual measured value or change rate compared with control, 4 W value” is “significant cardiac function improvement effect”. Besides, the “Cardiac function improvement effect” value in series [1] (Test 3, clinical dose, summary) is on record as “cardiac function improvement effect was observed”. Also, the “Minimal effective dose (screening 2)” value in series [1] (mg/kg twice per day, oral preparation) was 0.17 mg/kg. The “Body weight 0 W” value in series [3] (Test 4, at grouping) came out at 71.5 g. In addition, the “Action on decrease in left ventricular systolic function” value in series [3] (Test 4, clinical doses p.o. b.i.d., 8 weeks) is given as “significant suppression action on a decrease in left ventricular systolic function; also recorded: action of significantly suppressing a decrease in left ventricular systolic function”. In series [3] (setting [6]), the “Body weight 2 W” value worked out at 84.2 g, the “Body weight 4 W” value was 92.6 g, the “Body weight 5 W” value is 97.8 g and the “Body weight 6 W” value turned out to be 101.3 g. Moreover, in series [3] (setting [6]), the “Body weight 7 W” value stood at 104.0 g and the “Body weight 8 W” value is 106.1 g. In series [3] (0 W (start of administration)), the “% FS” value is on record as 38.8 ± 3.0% and the “EF (%)” value is 76.9 ± 3.4%. Further, in series [3] (4 W), the “% FS” value worked out at 34.4 ± 1.8%, the “EF (%)” value came out at 71.7 ± 2.3%, the “value of change in E.F. compared with E.F. at 0 W” value is given as <−5.2 ± 2.3> % and the “value of change in F.S. compared with F.S. at 0 W” value is recorded as <−4.4 ± 2.1> %. Moreover, in series [3] (8 W), the “% FS” value is listed as 30.1 ± 1.3%, the “EF (%)” value was 65.8 ± 1.9%, the “value of change in E.F. compared with E.F. at 0 W” value is reported as <−11.1 ± 3.8> % and the “value of change in F.S. compared with F.S. at 0 W” value is recorded as <−8.7 ± 3.2> %.
Take Lovastatin calcium [Compound J]: the No-observed-adverse-effect level in series [4] (1 month) is 15 mg/kg. For the same molecule, the No-observed-adverse-effect level in series [4] (6 months) was 2 mg/kg. Moreover, the No-observed-adverse-effect level in series [4] (13 weeks / 3 months) is recorded as 10 mg/kg. Moreover, the “Body weight lower than that in the control group” value in series [1] (Test 2, 8 weeks after start of administration, 5 mg/kg b.i.d.) is “about 10%”. Moreover, in series [1] (Test 2, at grouping), the “% FS 0 W” value was 17 ± 2%, the “Body weight 0 W” value came out at 122.9 g, the “EF 0 W” value stood at 43 ± 3% and the “LVIDd 0 W” value was 6.7 mm. In addition, the “LVIDs 0 W” value in series [1] (Test 2, at grouping) is 5.6 mm. Besides, in series [1] (Test 2, p.o. b.i.d.), the “LVIDd 4 W” value was determined as 7.1 mm, the “LVIDd 8 W” value is reported as 7.4 mm, the “LVIDs 4 W” value is on record as 6.0 mm and the “LVIDs 8 W” value is on record as 6.3 ± mm. In series [1] (setting [5]), the “% FS 4 W” value was determined as 15 ± 1%, the “% FS 8 W” value is 14 ± 1%, the “% FS value of change at 4 W” value is <−2 ± 1> % and the “% FS value of change at 8 W compared with 0 W” value is listed as <−3 ± 1> %. For the same molecule, in series [1] (setting [5]), the “Body weight 3 W” value stood at 120.8 g, the “Body weight 5 W” value is 120.3 * g, the “Body weight 7 W” value is listed as 118.7 ** g and the “Body weight 8 W” value was 118.0 * g. Further, in series [1] (setting [5]), the “EF 4 W” value turned out to be 39 ± 2%, the “EF 8 W” value came to 37 ± 2%, the “EF value of change at 4 W compared with 0 W” value was <−4 ± 1> % and the “EF value of change at 8 W compared with 0 W” value was <−6 ± 3> %. Further, in series [1] (setting [7]), the “% FS 4 W” value is given as “not significantly higher” and the “% FS value of change at 4 W” value is recorded as “significantly higher”. Also, the “LVIDs 8 W” value in series [1] (Test 2, p.o. b.i.d., listed as lovastatin) is “significantly lower”. In series [2] (human, in vivo), the “CK (CPK) elevation cases” value is 1.6%, the “Elevated AST (GOT) and/or ALT (GPT) / liver enzyme cases” value was 1.7% and the Muscle pain cases is on record as 3.2%. In addition, the “Cases with side effects (including laboratory test value abnormality)” value in series [2] is 18.8%.
